Entries after “also recorded” stand apart in the source; their conditions may differ.
Legend:
platelets [1] = assay: Loss of NBD-PS fluorescence from stimulated platelets (PS exposure); format: cell-based; conditions: 10 μM A23187, 8 min
Source text: In order to estimate the rate and extent of PS exposure on the platelet plasma membrane we utilized fluorescence-labeled PS (Reference 62). Prior reports indicate that platelets translocate NBD-PS to the inner leaflet of the plasma membrane, like unlabeled PS. When stimulated platelets transfer NBD-PS to the outer leaflet of the plasma membrane it is rapidly exchanged into delipidated albumin that is present in the buffer. Thus, translocation of NBD-PS to the outer plasma membrane causes a net loss in cell fluorescence. NBD-PS was loaded into membranes of resting platelets from donor vesicles prior to platelet purification. The rate and extent of platelet fluorescence loss provide an estimate of the rate and extent of plasma membrane PS exposure.
During the first minute after addition of TRAP the fluorescence loss was 12±1.8% vs. 5±2.5% for control platelets. Stimulation with 10 μM A23187 led to the same rate of fluorescence loss during the first minute but the rate was maintained so that after 8 min. >90% of NBD fluorescence was lost (FIG. 12B inset).

platelets [2] = assay: Lactadherin binding to A23187-stimulated platelets (flow cytometry); format: cell-based; conditions: Platelet; 0.25 μM A23187 vs. unstimulated platelets; read-out: net increase of fluorescence (bound lactadherin)
Procedure: We asked whether platelets have a stimulated state when they bind lactadherin but not annexin V, consistent with the hypothesis that platelets have the capacity to regulate PS exposure at a level less than 2.5% PS (FIG. 8A-C). Platelets were incubated with fluorescein labeled lactadherin and Alexa Fluor 647 labeled annexin V. Because competition of either protein for the other's binding sites was <20% at these concentrations (FIG. 7C, 7D) we utilized both proteins simultaneously. The gain on the flow cytometer was set so that the intrinsic fluorescence of unstimulated platelets placed the population in the lower left quadrant of the display (FIG. 8A). […] Comparison with the unstimulated state indicates a net increase of fluorescence to approximately 3-fold. (FIG. 8B). The cross-hair allows comparison of modal fluorescence values for resting platelets vs. stimulated platelets.

[3] = target: T1, bovine lactadherin (fluorescein-labeled, purified from bovine milk) (Bos taurus, UniProt Q95114); assay: Equilibrium binding of fluorescein-labeled lactadherin to lipospheres (membranes on glass microspheres, flow cytometry); conditions: for binding of lactadherin: lipospheres with 2% synthetic dioleoyl lipid, 20% PE, balance PC, FIG. 5A
T1 construct: from tissue; host or cells: bovine milk
T1 sequence (Q95114 19-427): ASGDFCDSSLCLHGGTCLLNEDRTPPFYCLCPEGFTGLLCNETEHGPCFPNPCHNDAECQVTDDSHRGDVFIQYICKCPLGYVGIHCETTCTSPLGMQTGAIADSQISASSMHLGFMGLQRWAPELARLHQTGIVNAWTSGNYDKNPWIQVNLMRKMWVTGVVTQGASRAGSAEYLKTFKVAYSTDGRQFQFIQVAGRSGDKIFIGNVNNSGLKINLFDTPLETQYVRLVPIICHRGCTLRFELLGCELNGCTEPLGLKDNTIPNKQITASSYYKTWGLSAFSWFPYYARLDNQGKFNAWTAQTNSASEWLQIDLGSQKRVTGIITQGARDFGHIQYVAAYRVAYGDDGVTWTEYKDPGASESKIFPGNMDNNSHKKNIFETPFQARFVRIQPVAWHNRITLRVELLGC
Procedure: (§1) Lactadherin was purified from bovine milk as previously described (Reference 1). Lactadherin, 0.2 mg in 0.2 ml phosphate-buffered saline, was concentrated 10-fold by ultrafiltration with a Centricon YM-10 (Millipore, Bedford, Mass.) followed by dilution to the starting concentration into 0.1 M sodium carbonate buffer, pH 9.0. Fluorescein isothiocyanate (Molecular Probes, Eugene, Oreg.) 6 μl of 10 mg/ml solution in DMSO, was added to lactadherin and the mixture was incubated for one hour at RT in the dark. Free fluorescein was removed by gel filtration using a micro spin column equilibrated with 0.1 M sodium carbonate, 0.1 M betaine, 0.004% Tween-80, pH 9.0 (FluoReporter FITC Protein Labeling Kit, Molecular Probes, Eugene, Oreg.). Fluorescein-labeled lactadherin was concentrated approx. 10-fold by ultrafiltration using a Centricon YM-10, and diluted to approximately the original concentration in 0.15 M NaCl, 50 mM Tris-HCl, pH 7.5. Labeling efficiency was judged by comparison of absorbance at 490 nm to absorbance at 280 nm (correcting for fluorescein absorbance at 280 nm).
Glass microspheres of 1.6 μm nominal diameter (Duke Scientific, Palo Alto, Calif.) were cleaned, size-restricted and covered with a phospholipid bilayer as previously described (Reference 17). Membranes supported by glass microspheres were washed three times in 0.15 M NaCl, 0.02 M Tris-HCl, 0.1% defatted bovine albumin, 10 μM egg PC as sonicated vesicles; stored at 4° C.; and used within 8 hours of synthesis. Fluorescein-labeled factor VIII (4 nM) was incubated with lactadherin or annexin V for 15 min at room temperature, the mixture was added to lipospheres for an additional 10 minutes, and membrane-bound fVIII was measured by flow cytometry. This procedure was performed on 150 μl aliquots with an approximate liposphere concentration of 1×10^6/ml using a Becton Dickinson FACSCalibur flow cytometer. Data acquisition was triggered by forward light scatter with all photomultipliers in the log mode. […] Mean log fluorescence was converted to linear fluorescence for values depicted in the figures. Only experiments in which the fluorescence histogram indicated a log normal distribution, as judged by inspection, were analyzed quantitatively. […]
The equilibrium binding of lactadherin to lipospheres was fitted by non-linear, least squares data analysis using the standard binding model (assuming a single class of binding sites and that the fraction of bound lactadherin was small at each concentration evaluated). […]
Fluorescein-labeled lactadherin interacted with phospholipid bilayers supported by glass microspheres (lipospheres). […] After 10 minutes, we measured bound lactadherin using flow cytometry (FIG. 1A). […]

[4] = target: T1, bovine lactadherin (fluorescein-labeled, purified from bovine milk); assay: Competition of soluble head group for fluorescein-lactadherin binding to lipospheres (flow cytometry); conditions: for inhibition of lactadherin binding: concentrations as high as 0.35 M
Procedure: Flow Cytometry Phospholipid Binding Assay
Glass microspheres of 1.6 μm nominal diameter (Duke Scientific, Palo Alto, Calif.) were cleaned, size-restricted and covered with a phospholipid bilayer as previously described (Reference 17). Membranes supported by glass microspheres were washed three times in 0.15 M NaCl, 0.02 M Tris-HCl, 0.1% defatted bovine albumin, 10 μM egg PC as sonicated vesicles; stored at 4° C.; and used within 8 hours of synthesis. […] This procedure was performed on 150 μl aliquots with an approximate liposphere concentration of 1×10^6/ml using a Becton Dickinson FACSCalibur flow cytometer. Data acquisition was triggered by forward light scatter with all photomultipliers in the log mode. Noise was reduced during analysis by eliminating events with forward and side scatter values different from those characteristic of the lipospheres. Mean log fluorescence was converted to linear fluorescence for values depicted in the figures. Only experiments in which the fluorescence histogram indicated a log normal distribution, as judged by inspection, were analyzed quantitatively. Flow cytometry experiments were performed in 0.14 M NaCl, 0.02 M Trizma-HCl, 0.1% bovine albumin, pH 7.5 with CaCl2 as specified for individual experiments.
Fluorescein-labeled lactadherin was incubated with 10^6 lipospheres/ml in Tris-buffered saline, 1.5 mM CaCl2, 0.1% BSA for 10 min. prior to evaluation of bound lactadherin by flow cytometry. The final concentrations of lactadherin were varied to estimate the affinity and stoichiometry of bound lactadherin.
To estimate the stereoselective affinity of lactadherin for the L-serine containing head group of Ptd-L-Ser, we performed binding inhibition studies (FIG. 5B).

[5] = target: T1, bovine lactadherin (fluorescein-labeled, purified from bovine milk); assay: Competition of phospholipid vesicles with lipospheres for fluorescein-labeled lactadherin; format: binding; conditions: for support of lactadherin binding: vesicles lacking Ptd-L-Ser, FIG. 4B; for effect on number of binding sites or affinity for lactadherin: extruded vesicles, 0-20% PE, 1% Ptd-L-Ser
Procedure: as §1
Phospholipid vesicles were prepared by evaporating chloroform from the desired phospholipids, resuspending in methylene chloride and re-evaporating twice under argon. Large multilamellar vesicles were prepared by gently swirling tris-buffered saline (50 mM Tris, 150 mM NaCl, pH 7.4) over the dried lipid suspension until all lipid was suspended. Some of the large multilamellar vesicles were then utilized to prepare small unilamellar vesicles by sonication in a high intensity bath sonicator (Laboratory Supplies, Inc. Hicksville, N.Y.) under argon until visually clear (approx. 20 min.). Large unilamellar vesicles were made by extruding large multilamellar vesicle suspensions 20 times through […] polycarbonate membranes (Millipore, Bedford, Mass.) in a High Pressure Extrusion Device (Sciema Technical Services, Vancouver, BC, Canada) under argon as described previously (Reference 39). Phospholipid concentration was determined by phosphorus assay (Reference 40). Vesicles were used fresh, or 1 ml aliquots were quick-frozen in liquid nitrogen, stored at −80° C., and thawed at 37° C.
Glass microspheres of 1.6 μm nominal diameter (Duke Scientific, Palo Alto, Calif.) were cleaned, size-restricted and covered with a phospholipid bilayer as previously described (Reference 17). Membranes supported by glass microspheres were washed three times in 0.15 M NaCl, 0.02 M Tris-HCl, 0.1% defatted bovine albumin, 10 μM egg PC as sonicated vesicles; stored at 4° C.; and used within 8 hours of synthesis. Fluorescein-labeled factor VIII (4 nM) was incubated with lactadherin or annexin V for 15 min at room temperature, the mixture was added to lipospheres for an additional 10 minutes, and membrane-bound fVIII was measured by flow cytometry. This procedure was performed on 150 μl aliquots with an approximate liposphere concentration of 1×10^6/ml using a Becton Dickinson FACSCalibur flow cytometer. Data acquisition was triggered by forward light scatter with all photomultipliers in the log mode. Noise was reduced during analysis by eliminating events with forward and side scatter values different from those characteristic of the lipospheres. Mean log fluorescence was converted to linear fluorescence for values depicted in the figures. Only experiments in which the fluorescence histogram indicated a log normal distribution, as judged by inspection, were analyzed quantitatively. […]

[6] = target: T2, Recombinant human factor VIII (Homo sapiens, UniProt P00451); assay: Binding of factor VIII to lipospheres; conditions: lipospheres containing 4% Ptd-L-Ser; read-out: dissociation constant of factor VIII for lipospheres
T2 construct: Gift from D. Pittman, Genetics Institute, Cambridge, Mass
Source text: Human factor V was obtained from Haematologic Technologies Inc. (Burlington, Vt.). Recombinant human factor VIII was a gift from D. Pittman of Genetics Institute, Cambridge, Mass. Bovine brain phosphatidylserine (Ptd-L-Ser), egg yolk phosphatidylethanolamine (PE), bovine liver phosphatidylinositol, egg sphingomyelin, egg phosphatidylcholine (PC) and dioleoyl PC were obtained from Avanti Polar Lipids (Alabaster, AL). Phospholipase D from streptomyces, phospho-L-serine phospho-D-serine, L-serine and D-serine were obtained from Sigma.
Factor VIII and factor V were labeled with fluorescein maleimide (Molecular Probes, Eugene, Oreg.) as previously described (References 17 and 37). Protein concentration of factor VIII was determined using a Micro-BCA Assay (Pierce, Rockford, Ill.) using bovine albumin as a standard.
Glass microspheres of 1.6 μm nominal diameter (Duke Scientific, Palo Alto, Calif.) were cleaned, size-restricted and covered with a phospholipid bilayer as previously described (Reference 17). […] Fluorescein-labeled factor VIII (4 nM) was incubated with lactadherin or annexin V for 15 min at room temperature, the mixture was added to lipospheres for an additional 10 minutes, and membrane-bound fVIII was measured by flow cytometry. […] Mean log fluorescence was converted to linear fluorescence for values depicted in the figures. […]

T2 sequence (P00451 20-2351): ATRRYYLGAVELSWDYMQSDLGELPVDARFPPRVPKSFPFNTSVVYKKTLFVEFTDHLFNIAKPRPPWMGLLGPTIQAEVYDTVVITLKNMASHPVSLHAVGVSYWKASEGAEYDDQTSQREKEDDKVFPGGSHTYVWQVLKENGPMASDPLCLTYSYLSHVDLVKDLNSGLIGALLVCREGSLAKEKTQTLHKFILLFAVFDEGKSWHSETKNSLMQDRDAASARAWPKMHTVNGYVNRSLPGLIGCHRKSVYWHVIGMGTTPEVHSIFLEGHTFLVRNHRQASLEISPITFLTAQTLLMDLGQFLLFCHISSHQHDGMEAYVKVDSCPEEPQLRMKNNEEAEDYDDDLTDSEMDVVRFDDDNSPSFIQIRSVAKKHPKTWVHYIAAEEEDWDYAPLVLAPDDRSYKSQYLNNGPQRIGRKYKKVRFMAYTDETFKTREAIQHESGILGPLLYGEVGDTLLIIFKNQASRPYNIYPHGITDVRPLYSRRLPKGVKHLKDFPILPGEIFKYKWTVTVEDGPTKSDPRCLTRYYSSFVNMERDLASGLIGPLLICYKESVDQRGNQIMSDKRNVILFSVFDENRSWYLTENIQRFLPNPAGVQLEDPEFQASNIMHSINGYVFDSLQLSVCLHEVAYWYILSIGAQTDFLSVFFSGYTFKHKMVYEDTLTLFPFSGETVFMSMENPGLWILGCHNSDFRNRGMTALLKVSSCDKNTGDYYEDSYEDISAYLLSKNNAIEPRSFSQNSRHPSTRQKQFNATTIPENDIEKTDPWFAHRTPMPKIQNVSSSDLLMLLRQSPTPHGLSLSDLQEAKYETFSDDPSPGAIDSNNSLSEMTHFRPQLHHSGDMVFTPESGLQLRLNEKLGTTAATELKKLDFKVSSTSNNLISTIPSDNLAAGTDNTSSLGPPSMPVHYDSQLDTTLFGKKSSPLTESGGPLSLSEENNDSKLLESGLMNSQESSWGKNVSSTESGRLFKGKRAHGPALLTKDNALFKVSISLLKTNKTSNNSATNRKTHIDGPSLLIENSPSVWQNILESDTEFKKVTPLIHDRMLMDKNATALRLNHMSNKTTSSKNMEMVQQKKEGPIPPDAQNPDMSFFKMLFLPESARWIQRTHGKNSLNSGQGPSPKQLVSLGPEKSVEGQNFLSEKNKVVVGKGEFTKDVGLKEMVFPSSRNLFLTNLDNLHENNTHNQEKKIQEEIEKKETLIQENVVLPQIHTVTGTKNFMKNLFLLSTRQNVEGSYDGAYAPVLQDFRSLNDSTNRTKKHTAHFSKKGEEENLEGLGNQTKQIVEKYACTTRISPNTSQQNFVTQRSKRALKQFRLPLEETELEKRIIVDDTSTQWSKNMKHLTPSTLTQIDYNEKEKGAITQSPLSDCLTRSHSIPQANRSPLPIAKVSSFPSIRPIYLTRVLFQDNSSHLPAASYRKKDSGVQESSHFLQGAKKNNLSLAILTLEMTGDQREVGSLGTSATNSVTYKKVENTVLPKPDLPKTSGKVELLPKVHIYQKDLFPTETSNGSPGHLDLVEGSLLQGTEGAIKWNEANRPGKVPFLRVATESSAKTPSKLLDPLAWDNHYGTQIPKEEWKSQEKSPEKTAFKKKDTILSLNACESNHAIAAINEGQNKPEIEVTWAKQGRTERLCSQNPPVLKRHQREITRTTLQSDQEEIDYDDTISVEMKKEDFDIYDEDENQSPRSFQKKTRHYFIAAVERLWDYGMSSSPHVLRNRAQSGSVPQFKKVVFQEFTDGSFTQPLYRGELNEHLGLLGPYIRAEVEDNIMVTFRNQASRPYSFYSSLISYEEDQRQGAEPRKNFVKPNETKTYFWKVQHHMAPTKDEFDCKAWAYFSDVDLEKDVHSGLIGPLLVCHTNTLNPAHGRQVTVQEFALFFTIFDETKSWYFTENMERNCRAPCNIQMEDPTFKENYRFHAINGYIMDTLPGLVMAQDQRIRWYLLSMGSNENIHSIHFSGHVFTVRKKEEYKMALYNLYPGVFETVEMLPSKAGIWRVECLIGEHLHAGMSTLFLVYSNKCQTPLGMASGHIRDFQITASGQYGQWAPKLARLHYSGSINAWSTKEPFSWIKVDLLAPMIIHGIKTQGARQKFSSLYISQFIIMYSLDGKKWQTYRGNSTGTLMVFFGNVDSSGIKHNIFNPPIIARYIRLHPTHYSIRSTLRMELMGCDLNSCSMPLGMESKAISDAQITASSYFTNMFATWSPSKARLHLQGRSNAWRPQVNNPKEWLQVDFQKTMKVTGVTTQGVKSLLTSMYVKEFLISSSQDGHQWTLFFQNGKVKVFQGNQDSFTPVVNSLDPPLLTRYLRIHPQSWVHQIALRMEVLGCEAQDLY

CNc1ccc2oc(C[C@H]3O[C@@]4(CC[C@H]3C)O[C@H]([C@H](C)C(=O)c3ccc[nH]3)[C@H](C)C[C@H]4C)nc2c1C(=O)O [A23187]
NBD fluorescence lost (platelets [1]): > 90% | fold induction at 0.25 µM (platelets [2]): ~3

CCCCCCCC/C=C\CCCCCCCC(=O)OC[C@H](COP(=O)(O)OC[C@@H](N)C(=O)O)OC(=O)CCCCCCC/C=C\CCCCCCCC [dioleoyl Ptd-D-Ser]
binding of lactadherin ([3]; listed as Ptd-D-Ser): did not support binding of lactadherin above the level supported by control membranes of PE:PC 20:80

CCCCCCCC/C=C\CCCCCCCC(=O)OC[C@H](COP(=O)(O)OC[C@H](N)C(=O)O)OC(=O)CCCCCCC/C=C\CCCCCCCC [dioleoyl Ptd-L-Ser]
binding of lactadherin [3]: Lactadherin bound to membranes; also recorded: bound lactadherin with high affinity, comparable to Ptd-L-Ser from biologic sources

N[C@H](COP(=O)(O)O)C(=O)O [phospho-D-serine]
inhibition of lactadherin binding [4]: ≤ 25% | fold less effective as an inhibitor (vs. phospho-L-serine) ([4]; inhibition of lactadherin binding to lipospheres): at least 4 fold

phosphate
inhibition of lactadherin binding [4]: ≤ 25%

phosphatidylcholine [PC]
support of lactadherin binding [5]: supported low affinity lactadherin binding

phosphatidylethanolamine [PE]
effect on number of binding sites or affinity for lactadherin [5]: did not influence the apparent number of binding sites or affinity for lactadherin | effect on number of binding sites or affinity for lactadherin ([5]; listed as phosphatidylethanolamine): did not enhance the apparent affinity or number of lactadherin binding sites

phosphatidylinositol
support of lactadherin binding [5]: does not support high affinity binding of lactadherin; also recorded: supported low affinity binding of lactadherin

phosphatidylserine [Ptd-L-Ser]
Kd ([5]; sonicated vesicles of 16% Ptd-L-Ser, n<60, read-out: KD (lower limit)): > 0.2 nM | Kd [6]: 4.8 nM | apparent KD, 1% Ptd-L-Ser vs. 4% Ptd-L-Ser membranes (fold difference) ([3]; lipospheres of 1% vs. 4% Ptd-L-Ser): ≤ 2 fold | Kd ([3]; membranes Ptd-L-Ser:PE:PC 4:20:76 on glass microspheres, 10 min, read-out: KD (apparent)): 3.3 ± 0.4 nM
